Assay results taken from PubChem BioAssay (NCI).
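Where inhibition never reached the appropriate level, the endpoint shown equals the highest concentration tested. Otherwise, values were interpolated linearly from a five-concentration, 48-hour dose response in 96-well plates. GI50 = concentration required for 50% inhibition of growth. The concentration for full growth arrest is given as TGI.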

Assays:
Assay in all cases: inhibition of tumour cell growth, NCI panel, 48 h
SK-OV-3 ovarian = system: SK-OV-3 ovarian
TK-10 renal = system: TK-10 renal
PC-3 prostate = system: PC-3 prostate
MALME-3M melanoma = system: MALME-3M melanoma
HT29 colon = system: HT29 colon
786-0 renal = system: 786-0 renal
LOX IMVI melanoma = system: LOX IMVI melanoma
RPMI-8226 leukemia = system: RPMI-8226 leukemia
KM12 colon = system: KM12 colon
NCI/ADR-RES ovarian = system: NCI/ADR-RES ovarian

| Structure (SMILES) | GI50 (SK-OV-3 ovarian) [µM] | TGI (SK-OV-3 ovarian) [µM] | GI50 (TK-10 renal) [µM] | TGI (TK-10 renal) [µM] | GI50 (PC-3 prostate) [µM] | TGI (PC-3 prostate) [µM] | GI50 (MALME-3M melanoma) [µM] | TGI (MALME-3M melanoma) [µM] | GI50 (HT29 colon) [µM] | TGI (HT29 colon) [µM] | GI50 (786-0 renal) [µM] | TGI (786-0 renal) [µM] | GI50 (LOX IMVI melanoma) [µM] | TGI (LOX IMVI melanoma) [µM] | GI50 (RPMI-8226 leukemia) [µM] | TGI (RPMI-8226 leukemia) [µM] | GI50 (KM12 colon) [µM] | TGI (KM12 colon) [µM] | GI50 (NCI/ADR-RES ovarian) [µM] | TGI (NCI/ADR-RES ovarian) [µM] |
| --- | --- | --- | --- | --- | --- | --- | --- | --- | --- | --- | --- | --- | --- | --- | --- | --- | --- | --- | --- | --- |
| Cn1c(=O)c2c(nc(Nc3cc(=O)[nH]c(=O)[nH]3)n2Cc2ccccc2)n(C)c1=O | > 100 | > 100 | > 100 | > 100 | > 100 | > 100 | > 100 | > 100 | > 100 | > 100 | > 100 | > 100 | > 100 | > 100 | 15.9 | > 100 | > 100 | > 100 | > 100 | > 100 |
| Oc1[nH]c2ccccc2c1N=Nc1ccccc1Cl | – | 64.5 | – | 32.8 | – | > 100 | – | > 100 | – | > 100 | – | 31.1 | – | > 100 | – | > 100 | – | > 100 | – | > 100 |
| CNCCCn1cc(C2=C(c3cn(C)c4ccccc34)C(=O)NC2=O)c2ccccc21 | 4.26 | 22.5 | 4.16 | 10.7 | 4.01 | 14.6 | 5.37 | 10.4 | 1.14 | 12.2 | 4.77 | 11.3 | 3.93 | 8.28 | 5.12 | 11.7 | 3.89 | 8.39 | 14.1 | 25 |
| Clc1coc2nc3ccccc3c(Nc3ccc4c(c3)OCO4)c12 | 2.24 | > 100 | 2.59 | 17.4 | 1.93 | 13.5 | 0.795 | 8.67 | 0.601 | > 100 | 2.73 | > 42.6 | 2.01 | 13.6 | 1.45 | 4.44 | 0.997 | 12.5 | 0.512 | 8.01 |
| COc1ccc2c(c1)C(C)Cc1c(Cl)ncnc1N2C (centres undefined) | 0.504 | 17.3 | 1.06 | 18.8 | 0.424 | > 59.1 | 0.294 | 3.63 | 0.33 | 8.13 | 0.309 | 5.45 | 0.218 | 0.517 | 0.629 | 16 | 0.298 | 1.37 | 0.388 | 11.2 |
| CCCCCCCCCC/C=C/CC(=O)SCCNC(=O)CCNC(=O)[C@@H](O)C(C)(C)COP(=O)(O)OP(=O)(O)OCC1OC(n2cnc3c(N)ncnc32)C(O)C1OP(=O)(O)O (some centres undefined) | – | > 10 | – | > 10 | – | > 10 | – | > 10 | – | > 10 | – | > 10 | – | > 10 | – | > 10 | – | > 10 | – | > 10 |
| O=C1NC(=Nc2ccccc2)S/C1=C\c1ccc2ncccc2c1 | > 25 | > 25 | > 25 | > 25 | 1.67 | > 25 | > 18.1 | > 25 | > 25 | > 25 | > 25 | > 25 | > 25 | > 25 | – | > 25 | 1.62 | > 25 | > 6.88 | > 25 |
| COC(=O)/C=C/c1cc(O)c2oc(-c3ccc(O)c(O)c3)c(C(=O)OC)c2c1 | 1.13 | 15.6 | 3.89 | 16.9 | 0.437 | 13.1 | 0.397 | 14.4 | 3.24 | 11.5 | 3.67 | 16.3 | 0.367 | 10.3 | 0.316 | 1.75 | 0.439 | 9.38 | 0.134 | 6.63 |
| O=C(CCCn1ccnc1[N+](=O)[O-])NCCn1cncc1[N+](=O)[O-] | – | > 100 | – | > 100 | – | > 100 | – | > 100 | – | > 100 | – | > 100 | – | > 100 | – | > 100 | – | > 100 | – | > 100 |
| Cc1nnc(S(=O)(=O)c2ccc(N=Nc3c(N)nc(N)nc3N)cc2)s1 | – | > 100 | – | > 100 | – | > 100 | – | > 100 | – | > 100 | – | > 100 | – | > 100 | – | > 100 | – | > 100 | – | > 100 |
| COc1cc(C(=O)c2cc(C)c3[nH]c4ccc(Cl)cc4c3c2C)cc(OC)c1OC | 0.666 | 34.7 | 2.71 | 29.4 | 0.146 | 13.7 | 0.0791 | 15.3 | 0.359 | 10.7 | 0.0634 | 6.19 | 0.0384 | 5.52 | 0.0421 | 18.6 | 0.0531 | 2.4 | 0.032 | 11.9 |
| COc1ccc(N2C(=O)C(c3ccccc3)(c3ccccc3)C23C(=O)N(C)c2ccccc23)cc1 (centres undefined) | > 100 | > 100 | > 100 | > 100 | > 100 | > 100 | > 100 | > 100 | > 100 | > 100 | > 100 | > 100 | > 100 | > 100 | > 100 | > 100 | > 100 | > 100 | > 100 | > 100 |
| Cc1ccc(C(SCC(N)C(=O)O)(c2ccccc2)c2ccc(C)cc2)cc1 (centres undefined) | 0.0811 | 19.6 | 11.2 | 30.9 | 0.314 | 30.4 | 2.57 | 22.1 | 0.334 | 3.38 | 2.21 | 24.4 | 0.602 | 21.5 | 0.135 | 20.6 | 0.219 | 12.8 | 1.14 | 11.6 |
| COc1ncnc(C2CC2)c1-c1ncc2cnn(Cc3ccc(-c4nc(C(F)(F)F)cn4C(C)C)cc3)c2n1 | 36.8 | > 100 | 29 | > 100 | 17.5 | > 100 | 17.8 | 57.3 | 17.9 | > 100 | 31.4 | > 100 | 14.8 | 31.7 | 10.9 | 42.2 | 23.4 | 81.8 | 15.6 | 82.6 |
